Consider four compounds from patent US8940800B2, “Pharmaceutical compositions with enhanced performance” (Bend Research, Inc., priority 2004, dated 2015).

Data set [1] is described as follows: In vivo test of oral powder for constitution in beagle dogs (Example 10). The settings on record: male, dog, plasma, Fed, 90 mgA Drug 1 oral OPC. As to the method: (§1) Dispersion 17, consisting of 50:50 Drug 1:HPMCA Polymer 10, was dosed in male beagle dogs as an oral powder for constitution (OPC), by suspending the dispersion in a solution containing 0.5 wt % hydroxypropyl cellulose METHOCEL® (from Dow Chemical Co.), as follows. First, 7.5 g of METHOCEL® was weighed out and added slowly to approximately 490 ml of water at 90-100° C. to form a METHOCEL® suspension. After all the METHOCEL® was added, 1000 mL of cool/room temperature water was added to the suspension, which was then placed in an ice water bath. When all of the METHOCEL® had dissolved, 2.55 g of polyoxyethylene 20 sorbitan monooleate (TWEEN 80) were added and the mixture stirred until the TWEEN 80 had dissolved, thus forming a stock suspension solution.
To form the OPC, sufficient quantity of the test composition to result in a 90 mgA amount of Drug 1 was accurately weighed and placed into a mortar. A 20 mL quantity of the stock suspension solution was added to the mortar and the test composition was mixed with a pestle. Additional METHOCEL® suspension was added gradually with mixing until a total of 400 mL of the stock suspension solution had been added to the mortar. The suspension was then transferred to a flask, thus forming the OPC. In addition, an OPC containing 90 mgA of amorphous Drug 1 was prepared using the same procedure.
Six male beagle dogs were each dosed with the OPC. […]

Data set [2] is described as follows: In vivo test of oral powder for constitution in beagle dogs (Example 2). As to conditions: male, dog, plasma, Fed, 90 mgA Drug 1 oral OPC. As to the method:
as §1, with “Dispersions 1 and 4 were used as oral powders for constitution (OPC) for evaluating the performance” for “Dispersion 17, consisting”, “the dispersions in in vivo tests using male beagle dogs. The OPC” for “50:50 Drug 1:HPMCA Polymer 10,”, “dosed” for “dosed in male beagle dogs”, “a suspension” for “an oral powder for constitution (OPC), by suspending the dispersion”, “Co.), and was prepared” for “Co.),”
To form the OPC, sufficient quantity of the test composition to result in a 90 mgA amount of Drug 1 was accurately weighed and placed into a mortar. (“mgA” refers to mg of active drug.) A 20 mL quantity of the stock suspension solution was added to the mortar and the test composition was mixed with a pestle. Additional METHOCEL® suspension was added gradually with mixing until a total of 400 mL of the stock suspension solution had been added to the mortar. The suspension was then transferred to a flask, thus forming the OPC. This process was repeated for each of Dispersions 1 and 4. […]

Data set [3] can be described thus: In vitro membrane permeation test, Drug 6 (Example 7). It counts as physicochemical. As to conditions: Drug 6, feed solution 0.5% NaTC/POPC, permeate 60 wt % decanol in decane. On the procedure: Dispersion 19 (75:25 Drug 6:Polymer 17) was evaluated in vitro using the membrane permeation test described for Example 6, except that the permeate solution consisted of 60 wt % decanol in decane. The feed solution was made using MFD solution (0.5% NaTC/POPC). The concentration of Drug 6 in the feed solution would have been 500 μg/mL (354 μgA/mL), if all of the drug had dissolved.
As a control, crystalline Drug 6 alone was used. The concentration of drug added would have been 354 μgA/mL Drug 6, if all of the drug had dissolved.
The maximum flux of drug across the membrane (in units of μg/cm^2-min) was determined from the data by estimating the tangent to the concentration versus time curve at time 0.

Data set [4] in a line: Microcentrifuge dissolution test in PBS with NaTC/POPC, Drug 6 (Examples 8 and 12). It counts as physicochemical. As to conditions: 37° C., 0 to 90 minutes. On the procedure: Dispersion 19 was also evaluated in a microcentrifuge dissolution test using the following procedures. For this test, 1.7 mg of Dispersion 19 and 1.27 mg of Crystalline Drug 6 was added to respective microcentrifuge tubes. The tubes were placed in a 37° C. temperature-controlled bath, and 1.8 mL phosphate buffered saline (PBS) at pH 6.5 and 290 mOsm/kg containing 7.3 mM sodium taurocholic acid and 1.4 mM of 1-palmitoyl-2-oleyl-sn-glycero-3-phosphocholine was added to each tube. The concentration of Drug 6 would have been […] if all of the drug had dissolved. The samples were quickly mixed using a vortex mixer for about 60 seconds. The samples were centrifuged at 13,000 G at 37° C. for 1 minute. The resulting supernatant solutions were then sampled and diluted 1:6 (by volume) with methanol and then analyzed by high-performance liquid chromatography (HPLC). The contents of the tubes were mixed on the vortex mixer and allowed to stand undisturbed at 37° C. until the next sample was taken. Samples were collected at 4, 10, 20, 40, 90, and 1200 minutes.
The concentrations of Drug 6 obtained in these samples were used to determine the values of the maximum drug concentration between 0 and 90 minutes (MDC90) and the area under the curve from 0 to 90 minutes (AUC90).
A physical mixture of 75 wt % Drug 6 and 25 wt % HPMCA Polymer 16 was evaluated using the microcentrifuge dissolution test described in Example 8. The concentration of Drug 6 would have been 500 μgA/mL if all of the drug had dissolved. A control consisting of a physical mixture of 75 wt % Drug 6 and 25 wt % HPMC (Dow E3 Prem LV) was tested in the same test.

For data set [5] the following is noted: not told.
The nature of the next data set: physchem. The settings on record: pH 6, aqueous buffer.
Setting [6] is: Table 16, PBS pH 6.5 with 7.3 mM NaTC/1.4 mM POPC.
Setting [7] is: Table 20, PBS pH 6.5 with NaTC/POPC.

Where two headings read alike, the source gives them in different places.

As usually defined, the Cmax is the maximum level reached in the sampled fluid or tissue. The solubility is the dissolved amount per volume that the medium holds. A lower solubility goes with little dissolved substance.

`CCOC(=O)N1c2ccc(C(F)(F)F)cc2[C@@H](N(Cc2cc(C(F)(F)F)cc(C(F)(F)F)c2)C(=O)OC)C[C@H]1CC` [Amorphous Drug 1, [2R,4S]4-[(3,5-bis-trifluoromethyl-benzyl)-methoxycarbonyl-amino]-2-ethyl-6-trifluoromethyl-3,4-dihydro-2H-quinoline-1-carboxylic acid ethyl ester]: the Cmax in data set [1] and in data set [2] was 190 ± 55 ng/mL each time. The AUC(0-t) in data set [1] (read-out: AUC(0-12)) and in data set [2] (read-out: AUC(0-12)) was 640 ± 240 ng·h/mL throughout.
Regarding `CCCc1nn(C)c2c(=O)[nH]c(-c3cc(S(=O)(=O)N4CCN(C)CC4)ccc3OCC)nc12.O=C(O)CC(O)(CC(=O)O)C(=O)O` [Crystalline Drug 6, 1-[4-ethoxy-3-(6,7-dihydro-1-methyl-7-oxo-3-propyl-1H-pyrazolo[4,3-d]pyrimidin-5-yl)phenylsulphonyl]-4-methylpiperazine citrate salt], the “Maximum Drug Flux” value in data set [3] stood at 3.8 μg/cm^2-min. Besides, the AUC90 in data set [4] (setting [6]) and in data set [4] (setting [7]) was 7,000 min * μgA/mL in each case. The MDC,90 in data set [4] (setting [6]) and in data set [4] (setting [7]) was 98 μgA/mL each time.
For the compound “[2R,4S]4-[(3,5-bis-trifluoromethyl-benzyl)-methoxycarbonyl-amino]-2-ethyl-6-trifluoromethyl-3,4-dihydro-2H-quinoline-1-carboxylic acid ethyl ester [Crystalline Drug 1]”, the “Maximum Drug Flux” value in data set [5] was 0.16 μg/cm^2-min.
Compound `CCCc1nn(C)c2c(=O)[nH]c(-c3cc(S(=O)(=O)N4CCN(C)CC4)ccc3OCC)nc12.O=C(O)CC(O)(CC(=O)O)C(=O)O` [Drug 6, 1-[4-ethoxy-3-(6,7-dihydro-1-methyl-7-oxo-3-propyl-1H-pyrazolo[4,3-d]pyrimidin-5-yl)phenylsulphonyl]-4-methylpiperazine citrate salt] showed a solubility in “physchem” of approximately 20 µg/mL.
